Source: patent US11446388B2, “Amanitin antibody conjugates” ([…] Research GmbH, priority 2016, dated 2022)
*1 amine or outer side, *2 acyl side, *3 side chain or, on linkers, in order; H or OH if unused. Where a SMILES comes first, the peptide text is derived from it. Bridges are numbered along the chain shown (N, C = ends). [ ]: non-standard residue; d: D form. The star is where a group is joined. ξ: configuration not given here. X2 = CC(C)C(NC(=O)CCN1C(=O)C=CC1=O)C(=O)N[C@@H](C)C(=O)Nc1ccc(CN*)cc1; Trp(2-yl) = O=C([C@H](Cc1c([*:3])[nH]c2ccccc12)N[*:1])[*:2]; Ile(4R-OH,5-OH) = C[C@H]([C@H](N)C(=O)O)[C@@H](O)CO; X3 = CC([C@H](N[*:1])C(=O)[*:2])[C@@H](O)CO; X1 = O=C([C@@H]1CC(O)CN1[*:1])[*:2]; ξD = NC(CC(=O)O)C(=O)O; ξC = NC(CS)C(=O)O

Key:
RNA-polymerase II = RNA-polymerase II (Homo sapiens, UniProt P24928); conditions: read-out: KD of complex with RNA-polymerase II; cited from earlier work
[1] = Reactivity with cysteine in PBS buffer (RP-HPLC C18); format: physicochemical; conditions: 1 mg/mL, 10 mg/mL cysteine in PBS, pH 7.4 at 37° C., 24 h, 48 h and 6 d
Method: 1 mg/mL α-amanitin 10 mg/mL cysteine in PBS, pH 7.4 at 37° C. after 24 h, 48 h and 6 d RP-HPLC C18.
1 mg/mL β-amanitin 10 mg/mL cysteine in PBS, pH 7.4 at 37° C. after 24 h, 48 h and 6 d RP-HPLC C18.
1 mg/mL amanin 10 mg/mL cysteine in PBS, pH 7.4 at 37° C. after 24 h, 48 h and 6 d RP-HPLC C18.
1 mg/mL HDP 30.2105, 10 mg/mL cysteine in PBS, pH 7.4 at 37° C. after 24 h, 48 h and 6 d RP-HPLC C18; *impurity.
FIG. 7 summarizes the results from FIGS. 3 to 6; x axis: reaction time in hours; y axis: amount of remaining amatoxin variant in %.

[2] = Western-Blot stability of reference Thiomab D265C conjugates in plasma and PBS; format: in vitro ADME; conditions: conjugated to reference Thiomab D265C; 37° C. in human plasma, mouse plasma and PBS for 0, 4 and 10 days
From the text: Detection was done with a polyclonal anti-amanitin antibody from rabbit and an anti-rabbit antibody conjugated to horseradish peroxidase.

SKBR-3 cells = assay: Cytotoxicity on SKBR-3 after plasma or PBS stressing of reference Thiomab conjugates; format: cell-based; conditions: 4 days, SKBR-3 cells 96 h
Method: Test items were incubated in human plasma at 37° C. for 0 an 4 days. Cytotoxicity assay were performed on SKBR-3 cells for 96 h.
Test items were incubated in mouse plasma at 37° C. for 0 an 4 days. Cytotoxicity assay were performed on SKBR-3 cells for 96 h.
Test items were incubated in PBS at 37° C. for 0 an 4 days. Cytotoxicity assay were performed on SKBR-3 cells for 96 h. All ADCs show adequate stability to non-enzymatic environment.

[3] = Dose-escalating tolerability study in non-human primates; format: in vivo, cynomolgus monkeys; conditions: repeated dosing of 3 mg/kg
Method: ALT: alanine transaminase; AST: aspartate transaminase; LDH: lactate dehydrogenase.
J22.9-ISY-D265C-30.2115 and J22.9-ISY-D265C-30.1699 were assessed for a dose-escalating tolerability study in cynomolgus monkeys. Groups of 3 animals were injected with J22.9-ISY-D265C-30.1699 at days 1 (0.3 mg/kg), 22 (1 mg/kg), and 44 (3 mg/kg), or with J22.9-ISY-D265C-30.2115 at days 1 (0.3 mg/kg), 21 (1 mg/kg), and 42, 64, 84, 106 (3 mg/kg each time point). Animals were monitored over time for biochemical and haematological blood parameters (see FIG. 25), urinalysis, body weight, food consumption, clinical signs and mortality. In addition, blood samples were collected for pharmacokinetic studies. At the end of the experiments tissue samples are used for histopathological examinations.

MM.1S Luc xenograft [4] = assay: Disseminating MM.1S Luc xenograft model, comparison with J22.9-ISY-MMAF; format: in vivo
Method: The antitumor activity of J22.9-ISY-D265C-30.2115 was compared to the interchain conjugate J22.9-ISY-MMAF in a disseminating intravenous MM.1S Luc xenograft model at doses of 1 and 4 mg/kg.

[5] = system: NCI-H929 subcutaneous xenograft; assay: NCI-H929 subcutaneous xenograft, repeated dose; format: in vivo, mouse
Method: Once tumor volume reached 80 mm^3, mice (9 animals per group) were treated intravenously either once per week (1×/week), every two weeks (1×/2 weeks) or every 3 weeks (1×/3 weeks) with J22.9-ISY-D265C-30.2115 (doses 0.25 mg/kg, 0.5 mg/kg or 1 mg/kg) or were treated with PBS as control. In addition, 2 mg/kg doses were applied twice per week (2×/week). Tumor volumes were monitored twice per week.
The efficacy of drug substance J22.9-ISY-D265C-30.2115 was further evaluated in a repeated dose setting in the subcutaneous NCI-H929 xenograft model. Compared to the single dose application described above, doses were reduced to 1, 0.5 and 0.25 mg/kg and applied either once per week (1×/week), every two weeks (1×/2 weeks) or every three weeks (1×/3 weeks).

MM.1S Luc, and KMS-11 = assay: Timeline cytotoxicity experiment 24 to 120 hours on the two cell lines; format: cell-based, human; conditions: measured after 24, 46, 72, 96, and 120 hours
Method: Cytotoxicity potentials of J22.9-ISY-D265C-30.2115 was compared to the interchain conjugate J22.9-ISY-MMAF on two BCMA-positive MM cell lines (MM.1S Luc, and KMS-11). […] The efficacy of both compounds was compared in a timeline experiment on the two cell lines. Cytotoxicity was measured after 24, 46, 72, 96, and 120 hours (see FIGS. 26B+26C).

MM.1S Luc xenograft [6] = assay: Disseminating intravenous MM.1S Luc xenograft model, single dose; format: in vivo, mouse
Method: (§1) When reaching a mean flux of 1.5×10^6-1×10^7 (10-14 days after implantation) 8-10 mice per group were treated with single doses (2 and 4 mg/kg) of J22.9-ISY-D265C-30.1699, J22.9-ISY-D265C-30.2115 or PBS as control. Luciferase activity was monitored by non-invasive bio-imaging twice weekly, 10 minutes after administration of luciferin (10 μl/g body weight). (B) Individual tumor growth curves for each animal are depicted. Individual Growth curves are shown for groups treated with 2 mg/kg (solid line) and 4 mg/kg (dashed line) of J22.9-ISY-D265C-30.2115.
as §1, with “doses (0.1, 0.3, 1” for “doses (2”, “and 2” for “and 4”, “of” for “of J22.9-ISY-D265C-30.1699,”, “depicted.” for “depicted. Individual”, “with 1” for “with 2”
The antitumor activity of J22.9-ISY-D265C-30.1699 and J22.9-ISY-D265C-30.2115 was further tested in a disseminating intravenous MM.1S Luc xenograft model at doses of 2 and 4 mg/kg. […]

[7] = system: BCMA-positive NCI-H929 cells; assay: Plasma stability: cell-based cytotoxicity assay after incubation in plasma or PBS; design: species or system human
Method: J22.9-ISY-D265C-30.2115 (A) and J22.9-ISY-D265C-30.1699 (B) were incubated in PBS for control, or human, cynomolgus or mouse plasma for 0, 4, and 10 days at 37° C. and analysed for remaining cellular toxicity potential using BCMA-positive NCI-H929 cells.
Plasma stability of both ADC variants was confirmed in a cell-based cytotoxicity assay on BCMA-positive NCI-H929 cells (see Table 2) after incubation for 0, 4 and 10 days in PBS, human, cynomolgus or mouse plasma.

[8] = format: in vitro ADME; conditions: 37° C. for 0, 4, and 10 days in PBS, human, cynomolgus or mouse plasma
Method: Stability of J22.9-ISY-D265C-30.2115 and J22.9-ISY-D265C-30.1699 was tested following incubation at 37° C. for 0, 4, and 10 days in PBS, human, cynomolgus or mouse plasma.

[9] = system: NCI-H929 subcutaneous xenograft; assay: NCI-H929 subcutaneous xenograft, single dose; format: in vivo, mouse
Method: Once tumor volume reached 80 mm^3, mice (8 animals per group) were treated intravenously with single doses (2 or 4 mg/kg) of J22.9-ISY-D265C-30.2115 or J22.9-ISY-D265C-30.1699, or were treated with PBS as control.. Tumor volumes were monitored twice per week.
Antitumor activity of J22.9-ISY-D265C-30.2115 and J22.9-ISY-D265C-30.1699 was tested in a subcutaneous NCI-H929 (see Table 3 for details of cell line) mouse xenograft model.

For amanitin, which Kd (RNA-polymerase II) is on record?
The Kd was 3 nM.

Which reactivity with cysteine [1] does the source give for α-amanitin here?
Its reactivity with cysteine is “strong reactivity”.

What does the source list for `CC[C@H](C)[C@@H]1NC(=O)CNC(=O)[C@@H]2Cc3c([nH]c4ccccc34)SCC(NC(=O)CNC1=O)C(=O)N[C@@H](CC(=O)NCc1ccc(NC(=O)[C@H](C)NC(=O)C(NC(=O)CCN3C(=O)C=CC3=O)C(C)C)cc1)C(=O)N1CC(O)C[C@H]1C(=O)N[C@@H]([C@@H](C)[C@@H](O)CO)C(=O)N2` (stereo partly drawn) [HDP 30.2115] (cyclo(D(X2)[X1][Ile(4R-OH,5-OH)][Trp(2-yl)]GIG[ξC]); thioether 4-8)?
stability / cross-links (Western-Blot) [2]: high stability and significantly reduced cross-links; cytotoxicity after plasma stressing (SKBR-3 cells; human plasma at 37° C.): still picomolar activity; cytotoxicity after plasma stressing (SKBR-3 cells; mouse plasma at 37° C.): remains almost unchanged

Which reactivity with cysteine [1] does the source give for amanin here?
Its reactivity with cysteine is “reduced reactivity”.

For `CC[C@H](C)[C@@H]1NC(=O)CNC(=O)[C@H]2Cc3c([nH]c4cc(OCc5ccc(NC(=O)[C@H](C)NC(=O)[C@@H](NC(=O)CCN6C(=O)C=CC6=O)C(C)C)cc5)ccc34)[S@+]([O-])CC(NC(=O)CNC1=O)C(=O)N[C@@H](CC(N)=O)C(=O)N1CC(O)C[C@H]1C(=O)N[C@@H]([C@@H](C)[C@@H](O)CO)C(=O)N2` (some centres unmarked) [HDP 30.1699], which “stability / cross-links (Western-Blot)” value [2] is on record?
Its value is “considerable cross-links and loss of the amatoxin moiety”.

And the “cytotoxicity after plasma stressing” value (SKBR-3 cells; human plasma at 37° C.)?
Its value is “remarkable loss of cytotoxicity”.

And the “cytotoxicity after plasma stressing” value (SKBR-3 cells; mouse plasma at 37° C.)?
The value was “remarkable loss of cytotoxicity”.

With “J22.9-ISY-D265C-30.2115: Thiomab antibody J22.9-ISY-D265C conjugated to amatoxin-linker HDP 30.2115 via engineered cysteine 265, cleavable linker” as the compound, how does the “liver enzymes or LDH on repeated dosing” value [3] read?
The value was “did not result in further increase”.

And the “time to regrowth of the tumor” value (MM.1S Luc xenograft [4]; 1 mg/kg)?
The value was 50 days.

What about the “time to regrowth of the tumor” value (MM.1S Luc xenograft [4]; 4 mg/kg) of the same compound?
Its value is 100 days.

And the “time to initial response” value (MM.1S Luc xenograft [4]; 1 and 4 mg/kg (both doses))?
The value was 10 days.

What about the “efficacy compared with MMAF conjugate” value (MM.1S Luc xenograft [4]; in vivo) of the same compound?
Its value is “better efficacy in terms of tumor free survival”.

What about the tumor response ([5]; repeated 2 mg/kg dosing) of the same compound?
The tumor response was “complete tumor remission”.

What about the tumor response ([5]; repeatedly applied doses of 1 mg/kg) of the same compound?
Its tumor response is “tumor regression”.

And the “time at which full cytotoxicity is unfolded” value (MM.1S Luc, and KMS-11)?
The value was “after 96 and 120 hours”.

What about the tumor response (MM.1S Luc xenograft [6]; single dose application of 0.3 mg/kg) of the same compound?
Its tumor response is “complete tumor eradication”.

And the “slight regrowth of tumor after initial response for over 90 days” value (MM.1S Luc xenograft [6]; single doses of 2 and 4 mg/kg)?
The value was 1 of 10.

And the EC50 ([7]; PBS pH 7.4, day 0, 37° C.)?
Its EC50 is 0.24 nM.

What about the EC50 ([7]; PBS pH 7.4, day 4, 37° C.) of the same compound?
The EC50 was 0.24 nM.

And the EC50 ([7]; PBS pH 7.4, day 10, 37° C.)?
Its EC50 is 0.41 nM.

And the EC50 ([7]; cynomolgus plasma, day 0, 37° C.)?
The EC50 was 0.25 nM.

And the EC50 ([7]; cynomolgus plasma, day 4, 37° C.)?
The EC50 was 0.25 nM.

And the EC50 ([7]; human plasma, day 0, 37° C.)?
The EC50 was 0.28 nM.

What about the EC50 ([7]; human plasma, day 4, 37° C.) of the same compound?
The EC50 was 0.27 nM.

And the EC50 ([7]; human plasma, day 10, 37° C.)?
The EC50 was 1 nM.

What about the “influence of incubation on cytotoxic potential” value ([7]; incubation in PBS or plasma up to 10 days) of the same compound?
Its value is “almost no influence on the cytotoxic potential”.

What about the EC50 ([7]; mouse plasma, day 0, 37° C.) of the same compound?
Its EC50 is 0.12 nM.

What about the EC50 ([7]; mouse plasma, day 4, 37° C.) of the same compound?
Its EC50 is 0.18 nM.

What about the EC50 ([7]; mouse plasma, day 10, 37° C.) of the same compound?
The EC50 was 0.6 nM.

And the “stability (Western Blot)” value [8]?
The value was “particularly high stability”.

And the “anti-tumor efficacy compared to J22.9-ISY-D265C-30.1699” value ([9]; 2 mg/kg)?
Its value is “slightly superior anti-tumor efficacy”.

And the “statistically significant body weight reduction” value ([9]; single doses 2 or 4 mg/kg)?
The value was “No statistically significant body weight reduction was observed”.

What about the “initial response followed by regrowth of tumor” value ([9]; single treatment 2 mg/kg iv) of the same compound?
The value was 6 of 8.

And the complete tumor remission ([9]; single treatment 4 mg/kg iv)?
The complete tumor remission was 7 of 8.

For β-amanitin, which reactivity with cysteine [1] is on record?
The reactivity with cysteine was “strong reactivity”.

For `CC[C@H](C)[C@@H]1NC(=O)CNC(=O)[C@@H]2Cc3c([nH]c4ccccc34)SCC(NC(=O)CNC1=O)C(=O)NC(CC(=O)O)C(=O)N1CC(O)C[C@H]1C(=O)N[C@@H](C(C)[C@@H](O)CO)C(=O)N2` (some centres unmarked) [HDP 30.2105] (cyclo(GIG[ξC][ξD][X1][X3][Trp(2-yl)]); thioether 4-8), which reactivity with cysteine [1] is on record?
Its reactivity with cysteine is “complete absence of reactivity”.
